Assay results published in patent US8877757B2, “Pyrazine derivatives and use as PI3K inhibitors” (Merck Serono SA, priority 2005, dated 2014).

Experiments:
[1] = tested on: Akt phosphorylation in B cells; test: IgM-induced Akt phosphorylation in B cell (human PBMC, flow cytometry); type: cell-based; conditions: 5 min, CD19+ IgM+ B cells in human PBMC, anti IgM for 5 minutes, read-out: IC50, inhibition of IgM-induced Akt Phosphorylation
Procedure: Human PBMC were prepared from a Buffy coat (Geneve Hospital) after a Ficoll gradient (FICOLL-PAQUE Plus PHARMACIA ref: 17-1440-03).
Cell concentration was adjusted to 10^6 cells per ml in RPMI (GIBCO Ref: 72400-21) without serum. Before stimulation, 90 μl of PBMC suspension was incubated with 10 μl of diluted compound in a 96 well round bottom plate for 20 minutes at 37° C.
For B cell activation, 30 μl of Fab′2 Goat anti IgM (Jackson Immuno-research) at 10 μg/ml was added to each well. After 5 minutes, cell activation was stopped with 4% paraformaldehyde (10 minutes at room temperature).
Fixed PBMC were then treated for 20 minutes with 0.15% Triton, washed twice with PBS and permeabilized with 50% methanol for 15 minutes.
PBMC were washed twice in PBS, resuspended in: PBS-4% FCS and incubated with anti P-Akt (1/100 dilution) for one hour at room temperature.
After one wash, PBMC were further stained for 30 minutes with a mixture of anti-CD19-PE (BD Biosciences), anti-IgM-FITC (BD Biosciences) and goat anti rabbit IgG-Alexa 647 (Molecular probe).
After washing, PBMC (Peripheral Blood Mononuclear Cells) were analysed on a FACSCalibur instrument (BD Biosciences) equipped with a 633 helium-neon laser, or stored at 4° C. for further analysis. 510^3 B cells events were gathered per sample in the CD19 positive region.
For the analysis, a threshold was applied on P-Akt histogram of CD 19+ IgM+ lymphocytes cells from the non-stimulated samples and the percentage of cells above this threshold was determined for each sample.

[2] = target: Human recombinant GST-PI3δ (Homo sapiens (Human), UniProt O00329); test: PI3K induced-lipid phosphorylation scintillation proximity assay (neomycin-coated SPA beads); type: biochemical
Text: The efficacy of compounds of the invention in inhibiting the PI3K induced-lipid phosphorylation may be tested in the following binding assay.
The assay combines the scintillation proximity assay technology (SPA, Amersham) with the capacity of neomycin (a polycationic antibiotic) to bind phospholipids with high affinity and specificity. The Scintillation Proximity Assay is based on the properties of weakly emitting isotopes (such as ^3H, ^125I, ^33P). Coating SPA beads with neomycin allows the detection of phosphorylated lipid substrates after incubation with recombinant PI3K and radioactive ATP in the same well, by capturing the radioactive phospholipids to the SPA beads through their specific binding to neomycin.
To a 96 wells MTP containing 10 μl of the test compound of Formula (I) (solubilized in 10% DMSO; to yield a concentration of 100, 25, 5.0, 1.25, 0.312, 0.078, 0.0195, 0.00488, 0.00122 and 0.0003 μM of the test compound), the following assay components are added: 1) 10 μl of lipid micelles 2) 20 μl of Kinase buffer ([^33P]γ-ATP 162 μM/300 nCi, MgCl2 2.5 mM, DTT 2.5 mM, Na3VO4 25 μM in Hepes 40 mM, pH 7.4) and 3) 10 μl (100 ng) of Human recombinant GST-PI3δ (in Hepes 40 mM, pH 7.4, ethylenglycol 4%). After incubation at room temperature for 120 minutes, with gentle agitation, the reaction is stopped by addition of 200 μl of a solution containing 250 μg of neomycin-coated PVT SPA beads, ATP 60 mM and EDTA 6.2 mM in PBS. The assay is further incubated at room temperature for 60 minutes with gentle agitation to allow binding of phospholipids to neomycin-SPA beads. After precipitation of the neomycin-coated PVT SPA beads for 5 minutes at 1500×g, radioactive PtdIns(3)P is quantified by scintillation counting in a Wallac MicroBeta™ plate counter.
The values indicated in Table I below refer to the IC50 (μM) with respect to PI3K, i.e. the amount necessary to achieve 50% inhibition of said target. Said values show a considerable inhibitory potency of pyrazine compounds with regard to PI3K.

[3] = tested on: PKB/Akt phosphorylation in mast cells; test: SCF-induced PKB/Akt phosphorylation in mast cells; type: cell-based, mice; conditions: Mast cell, 0.25 h; mast cells derived from mouse bone marrow, 20 ng/mL SCF for 15 minutes; read-out: IC50, inhibition of SCF-induced Akt Phosphorylation
Procedure: Protocol: Primary bone marrow cells were isolated from 4-8 weeks old wild type mice and derived to mast cells by incubation with medium containing 20 ng/mL of stem cell factor (SCF) (PeproTech, Switzerland) and 20 ng/mL of IL-3 (PeproTech, Switzerland) for at least 4 weeks. Confirmation of the expression of mast cell specific surface markers was done by FACS analysis using antibodies against c-kit (cKit-PE mouse antibody; Pharmingen). Cells were maintained in culture in the presence of SCF and IL-3. To induce PKB/Akt phosphorylation, mast cells were resuspended at 2.5×10^6 cells/mL and starved in medium containing no SCF or IL-3 for 24 h. After preincubation with compounds or 1% DMSO for 20 minutes, cells were activated with 20 ng/mL of SCF for 15 minutes at 37° C., fixed in 1.5% paraformaldehyde for 20 minutes and permeabilised with 0.2% Triton X-100 for 10 minutes, at room temperature. PKB/Akt phosphorylation was visualized using phospho-Ser-473 specific Akt antibodies (Cell Signaling) and standard FACS protocols.

Female Balb/c mice = test: Passive cutaneous anaphylaxis (PCA); type: in vivo; conditions: 30 mg/kg oral route, 2 hours before challenge
Procedure: Female Balb/c mice (Elevage Janvier) (8 week old) were intradermally injected by anti-DNP IgE (50 ng in 20 μl, id, 2 sites of injection) on their shaved backs. Twenty four hours later they received an intravenous injection of DNP-human serum albumin (50 μg/mouse) and Evans blue (25 mg/kg) by retroorbital injection. Thirty minutes later, the animals were sacrificed. The skin of the back was removed. The extravasated dye (punch diameter: 5 mm) was extracted from 2 punches by 0.4 ml of formamide and was quantified by fluorescence (E1: 585 nm, E2: 660 nm).
Inhibitors are administered by oral route at the dose of 30 mg/kg 2 hours before the challenge of DNP-human serum albumin and Evans blue.

Class I PI3-kinases = conditions: Fruman et al., 1998; read-out: IC50 against each of the various Class I PI3-kinases; cited from earlier work

Sequence of Human recombinant GST-PI3δ (O00329 whole entry): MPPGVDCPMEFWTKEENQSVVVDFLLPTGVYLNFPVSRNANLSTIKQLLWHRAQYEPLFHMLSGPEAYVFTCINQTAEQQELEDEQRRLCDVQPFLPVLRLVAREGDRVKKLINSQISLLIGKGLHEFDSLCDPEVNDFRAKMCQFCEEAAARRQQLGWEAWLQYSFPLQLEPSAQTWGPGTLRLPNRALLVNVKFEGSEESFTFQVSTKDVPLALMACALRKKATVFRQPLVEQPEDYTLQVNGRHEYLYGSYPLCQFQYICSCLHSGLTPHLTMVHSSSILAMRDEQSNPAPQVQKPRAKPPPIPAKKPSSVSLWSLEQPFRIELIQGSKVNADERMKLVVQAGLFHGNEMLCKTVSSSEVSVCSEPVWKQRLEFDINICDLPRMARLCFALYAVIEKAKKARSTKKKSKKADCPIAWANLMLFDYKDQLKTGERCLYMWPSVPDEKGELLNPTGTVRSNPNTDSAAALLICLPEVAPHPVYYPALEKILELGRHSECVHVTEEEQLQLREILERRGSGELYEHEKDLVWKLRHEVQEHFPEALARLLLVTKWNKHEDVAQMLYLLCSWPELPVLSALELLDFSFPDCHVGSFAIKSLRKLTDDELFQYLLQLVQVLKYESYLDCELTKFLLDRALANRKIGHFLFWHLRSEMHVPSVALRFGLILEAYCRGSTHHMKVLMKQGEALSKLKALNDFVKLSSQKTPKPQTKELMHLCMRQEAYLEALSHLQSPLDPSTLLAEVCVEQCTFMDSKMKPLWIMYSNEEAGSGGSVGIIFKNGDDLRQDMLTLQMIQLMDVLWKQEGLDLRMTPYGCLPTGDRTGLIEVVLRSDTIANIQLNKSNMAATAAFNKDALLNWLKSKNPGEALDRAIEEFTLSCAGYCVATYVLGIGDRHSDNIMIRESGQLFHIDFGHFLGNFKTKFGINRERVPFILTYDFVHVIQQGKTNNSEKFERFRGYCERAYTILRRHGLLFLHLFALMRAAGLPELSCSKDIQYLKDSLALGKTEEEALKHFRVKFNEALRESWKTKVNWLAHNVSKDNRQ

| Structure (SMILES) | IC50 [1] [nM] | IC50 [2] [nM] | IC50 [3] [nM] | inhibition of vascular permeability (Female Balb/c mice) [%] | IC50 (Class I PI3-kinases) [nM] |
| --- | --- | --- | --- | --- | --- |
| COc1ccc(OC)c(Nc2nc3ccccc3nc2NS(=O)(=O)c2cn(C)cn2)c1 [Example 13, N-{3-[(2,5-dimethoxyphenyl)amino]quinoxalin-2-yl}-1-methyl-1H-imidazole-4-sulfonamide] | 30 | 80 | – | – | – |
| COc1ccc(OC)c(Nc2nc3ccccc3nc2NS(=O)(=O)c2ccc3c(c2)sc(=O)n3C)c1 [Example 29, N-{3-[(2,5-dimethoxyphenyl)amino]quinoxalin-2-yl}-3-methyl-2-oxo-2,3-dihydro-1,3-benzothiazole-6-sulfonamide] | – | 240 | – | – | – |
| COc1ccc(OC)c(Nc2nc3ccccc3nc2NS(=O)(=O)c2cccnc2)c1 [Example 65, N-{3-[(2,5-dimethoxyphenyl)amino]quinoxalin-2-yl}pyridine-3-sulfonamide] | 21 | 56 | 1190 | 84 | – |
| COc1ccc(OC)c(Nc2nc3ncccc3nc2NS(=O)(=O)c2ccccc2)c1 [Example 86, N-{3-[(2,5-dimethoxyphenyl)amino]pyrido[2,3-b]pyrazin-2-yl}benzene sulfonamide] | – | 73 | – | – | – |
| COc1cc(Nc2nc3ccccc3nc2NS(=O)(=O)c2ccc(CN(C)C)cc2)cc(OC)c1 [Example 138, N-{3-[(3,5-dimethoxyphenyl)amino]quinoxalin-2-yl}-4-[(dimethylamino)methyl]benzenesulfonamide] | 16 | 27 | 180 | – | – |
| COc1cc(Nc2nc3ccccc3nc2NS(=O)(=O)c2cccc(C(=O)NCCCN(C)C)c2)cc(OC)c1 [Example 144, 3-[({3-[(3,5-dimethoxyphenyl)amino]quinoxalin-2-yl}amino)sulfonyl]-N-[3-(dimethylamino)propyl]benzamide] | – | 30 | – | – | – |
| COC[C@H]1OC(=O)c2coc3c2[C@@]1(C)C1=C(C3=O)[C@@H]2CCC(=O)[C@@]2(C)C[C@H]1OC(C)=O [Wortmannin] | – | – | – | – | 1 to 10 |
